Experimental data as given in US8202885B2, “Bridged six-membered ring compounds” (Actelion Pharmaceuticals Ltd., priority 2007, dated 2012).

System: human Cav3.1 Cav3.2 or Cav3.3 channel
Test: In vitro assay T channel (FLIPR calcium fluorescence)
Format: cell-based
Conditions: HEK293 cells expressing human Cav3.1, Cav3.2 or Cav3.3; 10 mM Ca2+-induced fluo-4 fluorescence; determined up to 10 μM; read-out: T channel antagonistic activity IC50
In short: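 IC50 (nM) is the antagonist concentration halving the area under the fluorescence peak evoked by 10 mM Ca2+, relative to vehicle, with testing up to 10 μM. Fluo-4-loaded HEK293 cells expressing each human Cav3 subtype received compound 3 min before Ca2+ addition (TEA-based buffer, pH 7.2); signal monitored 8 min at 2 s intervals.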

IC50 [µM]	Molecule
2.31	COc1cccc(C2=C[C@H]3CC[C@@H]2C[C@]3(CCN(C)CCCc2nc3ccccc3[nH]2)OC(=O)C(C)C)c1 (relative stereo) [Example 2A, rac-Isobutyric acid (1R*,2R*,4R*)-2-(2-{[3-(1H-benzoimidazol-2-yl)-propyl]-methyl-amino}-ethyl)-5-(3-methoxy-phenyl)-bicyclo[2.2.2]oct-5-en-2-yl ester]
1.37	CC1=C(c2ccccc2)[C@H]2CC[C@@H]1C[C@]2(CCN(C)CCCc1nc2ccccc2[nH]1)OC(=O)C(C)C (relative stereo) [Example 17A, rac-Isobutyric acid (1R*,2R*,4R*)-2-(2-{[3-(1H-benzoimidazol-2-yl)-propyl]-methyl-amino}-ethyl)-5-methyl-6-phenyl-bicyclo[2.2.2]oct-5-en-2-yl ester]
2.42	CC(C)C(=O)O[C@@]1(CCN(C)CCCc2nc3ccccc3[nH]2)C[C@H]2CC[C@@H]1C=C2c1cccs1 (relative stereo) [Example 21A, rac-Isobutyric acid (1R*,2R*,4R*)-2-(2-{[3-(1H-benzoimidazol-2-yl)-propyl]-methyl-amino}-ethyl)-5-thiophen-2-yl-bicyclo[2.2.2]oct-5-en-2-yl ester]
9.1	CO[C@@]1(c2ccccc2)C[C@H]2CC[C@@H]1C[C@]2(O)CCN(C)CCCc1nc2ccccc2[nH]1 (relative stereo) [Example 77, rac-(1R*,2S*,4R*,5S*)-2-(2-{[3-(1H-Benzoimidazol-2-yl)-propyl]-methyl-amino}-ethyl)-5-methoxy-5-phenyl-bicyclo[2.2.2]octan-2-ol]
2.63	CO[C@@]1(c2ccccc2)C[C@H]2CC[C@@H]1C[C@@]2(CCN(C)CCCc1nc2ccccc2[nH]1)OC(=O)C(C)C (relative stereo) [Example 77A, rac-Isobutyric acid (1R*,2S*,4R*,5S*)-2-(2-{[3-(1H-benzoimidazol-2-yl)-propyl]-methyl-amino}-ethyl)-5-methoxy-5-phenyl-bicyclo[2.2.2]oct-2-yl ester]
> 10	CO[C@@]1(c2ccccc2)C[C@H]2CC[C@@H]1C[C@@]2(O)CCN(C)CCCc1nc2ccccc2[nH]1 (relative stereo) [Example 78, rac-(1R*,2R*,4R*,5S*)-2-(2-{[3-(1H-Benzoimidazol-2-yl)-propyl]-methyl-amino}-ethyl)-5-methoxy-5-phenyl-bicyclo[2.2.2]octan-2-ol]
2.92	CN(CCCc1nc2ccccc2[nH]1)CC[C@]1(O)C[C@H]2CC[C@@H]1C[C@@]21OCc2ccccc21 (relative stereo) [Example 79, rac-(1R*,2R*,4R*,5R*)-5-(2-{[3-(1H-Benzoimidazol-2-yl)-propyl]-methyl-amino}-ethyl)-3′H-spiro(bicyclo[2.2.2]octane-2,1′-isobenzofuran)-5-ol]
9.47	CC(C)C(=O)O[C@@]1(CCN(C)CCCc2nc3ccccc3[nH]2)C[C@H]2CC[C@@H]1C[C@@]21OCc2ccccc21 (relative stereo) [Example 79A, rac-Isobutyric acid (1R*,2R*,4R*,5R*)-5-(2-{[3-(1H-benzoimidazol-2-yl)-propyl]-methyl-amino}-ethyl)-3′H-spiro(bicyclo[2.2.2]octane-2,1′-isobenzofuran)-5-yl ester]
3.71	CN(CCCc1nc2ccccc2[nH]1)CC[C@]1(O)C[C@H]2CC[C@@H]1C[C@]21OCc2ccccc21 (relative stereo) [Example 80, rac-(1R*,2S*,4R*,5R*)-5-(2-{[3-(1H-Benzoimidazol-2-yl)-propyl]-methyl-amino}-ethyl)-3′H-spiro(bicyclo[2.2.2]octane-2,1′-isobenzofuran)-5-ol]
4.18	CC(C)C(=O)O[C@@]1(CCN(C)CCCc2nc3ccccc3[nH]2)C[C@H]2CC[C@@H]1C[C@]21OCc2ccccc21 (relative stereo) [Example 80A, rac-Isobutyric acid (1R*,2S*,4R*,5R*)-5-(2-{[3-(1H-benzoimidazol-2-yl)-propyl]-methyl-amino}-ethyl)-3′H-spiro(bicyclo[2.2.2]octane-2,1′-isobenzofuran)-5-yl ester]
> 10	CN(CCCc1nc2ccccc2[nH]1)CCC1(O)CC2CCC1C=C2c1ccccc1 (single isomer, unassigned) [Example 11, (1R,2R,4R)-2-(2-{[3-(1H-Benzoimidazol-2-yl)-propyl]-methyl-amino}-ethyl)-5-phenyl-bicyclo[2.2.2]oct-5-en-2-ol or (1S,2S,4S)-2-(2-{[3-(1H-benzoimidazol-2-yl)-propyl]-methyl-amino}-ethyl)-5-phenyl-bicyclo[2.2.2]oct-5-en-2-ol]
> 10	CN(CCCc1nc2ccccc2[nH]1)CCC1(O)CC2CCC1C=C2c1ccccc1 (single isomer, unassigned) [Example 12, (1R,2R,4R)-2-(2-{[3-(1H-Benzoimidazol-2-yl)-propyl]-methyl-amino}-ethyl)-5-phenyl-bicyclo[2.2.2]oct-5-en-2-ol or (1S,2S,4S)-2-(2-{[3-(1H-benzoimidazol-2-yl)-propyl]-methyl-amino}-ethyl)-5-phenyl-bicyclo[2.2.2]oct-5-en-2-ol]
4.65	CC(C)C(=O)OC1(CCN(C)CCCc2nc3ccccc3[nH]2)CC2CCC1C=C2c1ccccc1 [Example 11A, Isobutyric acid (1R,2R,4R)-2-(2-{[3-(1H-benzoimidazol-2-yl)-propyl]-methyl-amino}-ethyl)-5-phenyl-bicyclo[2.2.2]oct-5-en-2-yl ester or isobutyric acid (1S,2S,4S)-2-(2-{[3-(1H-benzoimidazol-2-yl)-propyl]-methyl-amino}-ethyl)-5-phenyl-bicyclo[2.2.2]oct-5-en-2-yl ester]
4.23	CC(C)C(=O)OC1(CCN(C)CCCc2nc3ccccc3[nH]2)CC2CCC1C=C2c1ccccc1 [Example 12A, Isobutyric acid (1R,2R,4R)-2-(2-{[3-(1H-benzoimidazol-2-yl)-propyl]-methyl-amino}-ethyl)-5-phenyl-bicyclo[2.2.2]oct-5-en-2-yl ester or isobutyric acid (1S,2S,4S)-2-(2-{[3-(1H-benzoimidazol-2-yl)-propyl]-methyl-amino}-ethyl)-5-phenyl-bicyclo[2.2.2]oct-5-en-2-yl ester]
1.14	COc1cccc2[nH]c(CCCN(C)CCC3(OC(=O)C(C)C)CC4CCC3C=C4c3ccccc3)nc12 [Example 54A, Isobutyric acid (1R,2R,4R)-2-(2-{[3-(4-methoxy-1H-benzoimidazol-2-yl)-propyl]-methyl-amino}-ethyl)-5-phenyl-bicyclo[2.2.2]oct-5-en-2-yl ester or isobutyric acid (1S,2S,4S)-2-(2-{[3-(4-methoxy-1H-benzoimidazol-2-yl)-propyl]-methyl-amino}-ethyl)-5-phenyl-bicyclo[2.2.2]oct-5-en-2-yl ester]
1.07	COc1cccc2[nH]c(CCCN(C)CCC3(OC(=O)C(C)C)CC4CCC3C=C4c3ccccc3)nc12 [Example 55A, Isobutyric acid (1R,2R,4R)-2-(2-{[3-(4-methoxy-1H-benzoimidazol-2-yl)-propyl]-methyl-amino}-ethyl)-5-phenyl-bicyclo[2.2.2]oct-5-en-2-yl ester or isobutyric acid (1S,2S,4S)-2-(2-{[3-(4-methoxy-1H-benzoimidazol-2-yl)-propyl]-methyl-amino}-ethyl)-5-phenyl-bicyclo[2.2.2]oct-5-en-2-yl ester]
0.778	COc1ccc(OC)c2[nH]c(CCCN(C)CCC3(OC(=O)C(C)C)CC4CCC3C=C4c3ccccc3)nc12 [Example 67A, Isobutyric acid (1R,2R,4R)-2-(2-{[3-(4,7-dimethoxy-1H-benzoimidazol-2-yl)-propyl]-methyl-amino}-ethyl)-5-phenyl-bicyclo[2.2.2]oct-5-en-2-yl ester or Isobutyric acid (1S,2S,4S)-2-(2-{[3-(4,7-dimethoxy-1H-benzoimidazol-2-yl)-propyl]-methyl-amino}-ethyl)-5-phenyl-bicyclo[2.2.2]oct-5-en-2-yl ester]
0.793	COc1ccc(OC)c2[nH]c(CCCN(C)CCC3(OC(=O)C(C)C)CC4CCC3C=C4c3ccccc3)nc12 [Example 70A, Isobutyric acid (1R,2R,4R)-2-(2-{[3-(4,7-dimethoxy-1H-benzoimidazol-2-yl)-propyl]-methyl-amino}-ethyl)-5-phenyl-bicyclo[2.2.2]oct-5-en-2-yl ester or isobutyric acid (1S,2S,4S)-2-(2-{[3-(4,7-dimethoxy-1H-benzoimidazol-2-yl)-propyl]-methyl-amino}-ethyl)-5-phenyl-bicyclo[2.2.2]oct-5-en-2-yl ester]
6.07	CN(CCCc1nc2ccccc2[nH]1)CC[C@@]1(O)C[C@@H]2CC[C@H]1CN2c1ccccc1 [Example 74, (1S,4S,5R)-5-(2-{[3-(1H-Benzoimidazol-2-yl)-propyl]-methyl-amino}-ethyl)-2-phenyl-2-aza-bicyclo[2.2.2]octan-5-ol]
8.6	CC(C)C(=O)O[C@]1(CCN(C)CCCc2nc3ccccc3[nH]2)C[C@@H]2CC[C@H]1CN2c1ccccc1 [Example 74A, Isobutyric acid (1S,4S,5R)-5-(2-{[3-(1H-benzoimidazol-2-yl)-propyl]-methyl-amino}-ethyl)-2-phenyl-2-aza-bicyclo[2.2.2]oct-5-yl ester]
1.34	rac-(1R*,3R*,4R*)-1,2,3,4,9,10-Hexahydro-3-hydroxy-3-{N-methyl-N-(3-benzimidazol-2-ylpropyl)aminoethyl}-1,4-ethanophenanthrene [Example 18]

System: isolated mouse hearts
Test: Effect on isolated hearts according to the Langendorff method (Lgdff)
Conditions: not given
Method: Effect on Isolated Hearts According to the Langendorff Method (Lgdff)
The compounds were tested for their potential to reduce blood pressure and their effect on the contractility of the heart muscle. EC50 values on isolated mouse hearts were determined according to Literature (Doring H J., The isolated perfused heart according to Langendorff technique—function—application, Physiol. Bohemoslov. 1990, 39(6), 481-504; Kligfield P, Horner H, Brachfeld N., A model of graded ischemia in the isolated perfused rat heart, J. Appl. Physiol. 1976 June, 40(6), 1004-8).
51 example compounds have been measured using the procedure described above for the Langendorff experiment. The measured EC50 values were in the range of 4 to 669 nM with an average of 37 nM.

EC50 [µM]	Molecule
0.015	COc1cccc(C2=C[C@H]3CC[C@@H]2C[C@]3(CCN(C)CCCc2nc3ccccc3[nH]2)OC(=O)C(C)C)c1 (relative stereo) [Example 2A, rac-Isobutyric acid (1R*,2R*,4R*)-2-(2-{[3-(1H-benzoimidazol-2-yl)-propyl]-methyl-amino}-ethyl)-5-(3-methoxy-phenyl)-bicyclo[2.2.2]oct-5-en-2-yl ester]
0.012	CC1=C(c2ccccc2)[C@H]2CC[C@@H]1C[C@]2(CCN(C)CCCc1nc2ccccc2[nH]1)OC(=O)C(C)C (relative stereo) [Example 17A, rac-Isobutyric acid (1R*,2R*,4R*)-2-(2-{[3-(1H-benzoimidazol-2-yl)-propyl]-methyl-amino}-ethyl)-5-methyl-6-phenyl-bicyclo[2.2.2]oct-5-en-2-yl ester]
0.01	CC(C)C(=O)O[C@@]1(CCN(C)CCCc2nc3ccccc3[nH]2)C[C@H]2CC[C@@H]1C=C2c1cccs1 (relative stereo) [Example 21A, rac-Isobutyric acid (1R*,2R*,4R*)-2-(2-{[3-(1H-benzoimidazol-2-yl)-propyl]-methyl-amino}-ethyl)-5-thiophen-2-yl-bicyclo[2.2.2]oct-5-en-2-yl ester]
